Source: patent US20230203044A1, “PYRAZOLO[1,5-D][1,2,4]TRIAZINE-5(4H)-ACETAMIDES AS INHIBITORS OF THE NLRP3 INFLAMMASOME” (JANSSEN PHARMACEUTICA NV, priority 2020, published 2023)
Read-outs that look alike come from different tables or passages of the source.

Assays:
[1] = system: NLRP3 inflammasome; test: PBMC assay: IL-1β in LPS-stimulated human PBMCs (MSD); type: cell-based; details: read-out: IL1β IC50
Summary of the method: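 Human PBMCs from healthy donors, Ficoll-isolated and cryopreserved, were plated at 7.5×10^4 cells/well in RPMI/10% FBS for 30 min at 37 °C. Cells were then stimulated with 100 ng/ml LPS (final) for 6 h. IL-1β and TNF in supernatants were quantified by MSD immunoassay.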

[2] = system: TNF; test: PBMC assay: TNF cytokine levels in LPS-stimulated human PBMCs (MSD); type: cell-based; details: 100 ng/ml LPS for 6 hrs, TNF in supernatant via MSD
Summary of the method: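 Cryopreserved healthy-donor human PBMCs (7.5×10^4 cells/well, RPMI + 10% FBS) were preincubated with 1:3 serially diluted compounds for 30 min at 37 °C. They were then stimulated with 100 ng/ml LPS (final) for 6 h. Supernatant TNF was measured by MSD, and EC50 values were derived.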

[3] = human PBMCs, 100 ng/ml LPS for 6 hrs, IL-1β in supernatant via MSD

Compound | IC50 [1, 3] [µM] | EC50 [2] [µM] | IC50 ([1]; Homo sapiens, 6 h) [µM]
Cc1ncccc1NC(=O)Cn1nc(C(C)C)n2nc(C3CC3)cc2c1=O [Final Cpd 113] | 0.85 | > 10 | 
Cc1nn(CC(=O)NC2CN([C@H](c3ccccc3)c3cncnc3)C2)c(=O)c2cc(C3CC3)nn12 [Final Cpd 60] | > 10 | > 10 | 
CC(C)c1nn(CC(=O)Nc2cnccc2Cl)c(=O)c2cc(C3CC3)nn12 [Final Cpd 135] | 6.93 | > 10 | 
CC(C)c1nn(CC(=O)Nc2ccncc2F)c(=O)c2cc(C3CC3)nn12 [Final Cpd 96] | 0.24 | > 10 | 
CC(C)c1nn(CC(=O)Nc2ccncn2)c(=O)c2cc(N)nn12 [Final Cpd 186, 2-(2-amino-7-isopropyl-4-oxopyrazolo[1,5-d][1,2,4]triazin-5(4H)-yl)-N-(pyrimidin-4-yl)acetamide] | > 10 | > 10 | 
CC(C)c1nn(CC(=O)Nc2ccc3nnc(Cl)n3n2)c(=O)c2cc(C3CC3)nn12 [Final Cpd 170] | 0.55 | > 10 | 
CC(C)c1nn(CC(=O)Nc2ccncn2)c(=O)c2cc(I)nn12 [Final Cpd 2, 2-(2-iodo-7-isopropyl-4-oxo-pyrazolo[1,5-d][1,2,4]triazinyl)-N-pyrimidin-4-yl-acetamide] | < 0.12 | > 10 | 
Cc1cc(NC(=O)Cn2nc(C(C)C)n3nc(C4CC4)cc3c2=O)nc(C)n1 [Final Cpd 137] | 1.23 | > 10 | 
CC(C)c1nn(CC(=O)N[C@@H]2CCC(=O)N(CC3CC3)C2)c(=O)c2cc(C3CC3)nn12 [Final Cpd 26] | > 10 | > 10 | 
COc1ncc(NC(=O)Cn2nc(C(C)C)n3nc(C4CC4)cc3c2=O)cn1 [Final Cpd 107] | 4.23 | > 10 | 
CC(C)c1nn(CC(=O)N[C@H]2C[C@@](C)(O)C2)c(=O)c2cc(C(C)(F)F)nn12 [Final Cpd 161] | 0.11 | > 10 | 
CC(C)c1nn(CC(=O)NC2CCC(=O)N(CC3CC3)C2)c(=O)c2cc(C3CC3)nn12 (stereo not drawn) [Final Cpd 25] | 2.34 | > 10 | 
CC(C)c1nn(CC(=O)Nc2ccc3nncn3c2)c(=O)c2cc(C3CC3)nn12 [Final Cpd 80] | 0.08 | > 10 | 
CCc1nn(CC(=O)Nc2ccncn2)c(=O)c2cc(C)nn12 [Final Cpd 14] | 8.11 | > 10 | 
CCc1nn(CC(=O)Nc2ccc3nncn3c2)c(=O)c2cc(I)nn12 [Final Cpd 6] | 0.23 | > 10 | 
CC(C)c1cc2c(=O)n(CC(=O)Nc3ccc4nncn4c3)nc(C(C)C)n2n1 [Final Cpd 143] | 0.1 | > 10 | 
CC(C)c1nn(CC(=O)Nc2cccnc2Cl)c(=O)c2cc(C3CC3)nn12 [Final Cpd 109] | 1.08 | > 10 | 
CC(C)c1nn(CC(=O)N[C@@H]2CCC(=O)N(C)C2)c(=O)c2cc(C3CC3)nn12 [Final Cpd 30] | 1.43 | > 10 | 
CCc1cc2c(=O)n(CC(=O)Nc3ccncn3)nc(C(C)C)n2n1 [Final Cpd 1, 2-(2-ethyl-7-isopropyl-4-oxo-pyrazolo[1,5-d][1,2,4]triazin-5-yl)-N-pyrimidin-4-yl-acetamide] | 0.34 | > 10 | 

Compound | IC50 [1, 3] [µM] | EC50 [2] [µM] | IC50 ([1]; Homo sapiens, 6 h) [µM]
CCNc1cc2c(=O)n(CC(=O)Nc3ccc(=O)n(C)n3)nc(C(C)C)n2n1 [Final Cpd 74] | 0.22 | > 10 | 
CC(C)c1nn(CC(=O)NC2CCOCC2)c(=O)c2cc(C3CC3)nn12 [Final Cpd 36] | 0.97 | > 10 | 
CC(C)c1nn(CC(=O)Nc2ccnc(C(F)F)c2)c(=O)c2cc(C3CC3)nn12 [Final Cpd 130] | 0.53 | > 10 | 
COc1ncccc1NC(=O)Cn1nc(C(C)C)n2nc(C3CC3)cc2c1=O [Final Cpd 106] | 0.71 | > 10 | 
CC(C)c1nn(CC(=O)Nc2ccncc2)c(=O)c2cc(C3CC3)nn12 [Final Cpd 118] | 0.11 | > 10 | 
CCCCc1nn(CC(=O)Nc2ccc3nncn3c2)c(=O)c2cc(C3CC3)nn12 [Final Cpd 68] | 0.78 | > 10 | 
CC(C)c1cc2c(=O)n(CC(=O)N[C@H]3C[C@@](C)(O)C3)nc(N(C)C)n2n1 [Final Cpd 150] | 0.36 | > 10 | 
CCNc1cc2c(=O)n(CC(=O)Nc3ccncn3)nc(C(C)C)n2n1 [Final Cpd 72] | 0.054 | > 10 | 
COc1ccc(-c2nn(CC(=O)N[C@H]3C[C@@](C)(O)C3)c(=O)c3cc(C4CC4)nn23)cc1 [Final Cpd 199, 2-(2-cyclopropyl-7-(4-methoxyphenyl)-4-oxopyrazolo [1,5-d] [1,2,4]triazin-5(4H)-yl)-N-((1 s,3 s)-3-hydroxy-3-methylcyclobutyl)acetamide] | > 10 | > 10 | 
CC(C)c1nn(CC(=O)Nc2ccc3nncn3c2)c(=O)c2cc(NCC(F)(F)F)nn12 [Final Cpd 42] | 0.22 | > 10 | 
CC(C)c1nn(CC(=O)N[C@H]2C[C@@](C)(O)C2)c(=O)c2cc(CC(F)(F)F)nn12 [Final Cpd 160] | > 10 | > 10 | 
Cc1nn(CC(=O)NC2(C(F)(F)F)CCOC2)c(=O)c2cc(C3CC3)nn12 (stereo not drawn) [Final Cpd 51] | > 10 | > 10 | 
CC(C)c1nn2c(N(C)C)nn(CC(=O)Nc3ccncn3)c(=O)c2c1Br [Final Cpd 151] | > 10 | > 10 | 
Cc1nn(CC(=O)N[C@@H]2COC[C@H]2N2CCCCC2)c(=O)c2cc(C3CC3)nn12 [Final Cpd 54] |  | > 10 | > 10
COc1c(NC(=O)Cn2nc(C(C)C)n3nc(C4CC4)cc3c2=O)ccnc1C [Final Cpd 102] | 0.52 | > 10 | 
CC(C)c1cc2c(=O)n(CC(=O)Nc3ccnnc3)nc(N(C)C)n2n1 [Final Cpd 149] | 0.78 | > 10 | 
Cc1cn2nc(NC(=O)Cn3nc(C(C)C)n4nc(C5CC5)cc4c3=O)ccc2n1 [Final Cpd 114] | 0.35 | > 10 | 
CC(C)c1nn(CC(=O)Nc2ccnnc2)c(=O)c2cc(C3CC3)nn12 [Final Cpd 32] | 0.15 | > 10 | 
C=C(OCC)c1cc2c(=O)n(CC(=O)Nc3ccncn3)nc(C(C)C)n2n1 [Final Cpd 179, 2-(2-(1-ethoxyvinyl)-7-isopropyl-4-oxopyrazolo[1,5-d][1,2,4]triazin-5(4H)-yl)-N-(pyrimidin-4-yl)acetamide] | > 10 | > 10 | 

Compound | IC50 [1, 3] [µM] | EC50 [2] [µM] | IC50 ([1]; Homo sapiens, 6 h) [µM]
CC(C)c1nn(CC(=O)Nc2ccc(C3CC3)nn2)c(=O)c2cc(C3CC3)nn12 [Final Cpd 86] | > 10 | > 10 | 
CC(C)c1nn(CC(=O)N[C@H]2C[C@@](C)(O)C2)c(=O)c2cc(C(C)(C)C)nn12 [Final Cpd 71] | 0.54 | > 10 | 
CC(C)c1nn(CC(=O)Nc2ccnc(N(C)C)c2)c(=O)c2cc(C3CC3)nn12 [Final Cpd 123] | 1.04 | > 10 | 
CC(C)c1nn(CC(=O)N[C@@H]2CCCN(C3CCC3)C2)c(=O)c2cc(C3CC3)nn12 [Final Cpd 9] | < 0.12 | > 10 | 
Cc1nn(CC(=O)N[C@]23CC[C@H](CC2)C3)c(=O)c2cc(C3CC3)nn12 [Final Cpd 64] | 5.5 | > 10 | 
CC(C)c1nn(CC(=O)Nc2ccc3nncn3c2)c(=O)c2cc(C(C)(F)F)nn12 [Final Cpd 175, N-([1,2,4]triazolo[4,3-a]pyridin-6-yl)-2-(2-(1,1-difluoroethyl)isopropyl-4-oxopyrazolo[1,5-d][1,2,4]triazin-5(4H)-yl)acetamide] | 0.22 | > 10 | 
CC(C)c1nn(CC(=O)Nc2cncc(Cl)c2)c(=O)c2cc(C3CC3)nn12 [Final Cpd 117] | 1.41 | > 10 | 
CC(C)c1nn(CC(=O)Nc2ccc3nc(C(F)F)cn3c2)c(=O)c2cc(C3CC3)nn12 [Final Cpd 105] | 0.18 | > 10 | 
COc1cncc(NC(=O)Cn2nc(C(C)C)n3nc(C4CC4)cc3c2=O)c1 [Final Cpd 121] | 3.06 | > 10 | 
CC(C)c1nn(CC(=O)Nc2ccc3nccn3c2)c(=O)c2cc(C3CC3)nn12 [Final Cpd 91] | 0.31 | > 10 | 
COc1nn(CC(=O)N[C@H]2C[C@@](C)(O)C2)c(=O)c2cc(C3CC3)nn12 [Final Cpd 139] | 6.56 | > 10 | 
CC(C)c1nn(CC(=O)N[C@H]2C[C@@](C)(O)C2)c(=O)c2cc(NCC(F)(F)F)nn12 [Final Cpd 41] | 0.88 | > 10 | 
CC(C)c1nn(CC(=O)N[C@H]2C[C@@](C)(O)C2)c(=O)c2cc(C3CC3)nn12 [Final Cpd 8] | 0.24 | > 10 | 
CC(C)c1nn(CC(=O)Nc2ccn3ncnc3c2)c(=O)c2cc(C3CC3)nn12 [Final Cpd 103] | 0.56 | > 10 | 
CC(C)c1nn(CC(=O)Nc2ccc3nnnn3n2)c(=O)c2cc(C3CC3)nn12 [Final Cpd 169] | 0.16 | > 10 | 
CC(C)c1nn(CC(=O)N[C@H]2CCC(=O)N(C)C2)c(=O)c2cc(C3CC3)nn12 [Final Cpd 31] | 0.69 | > 10 | 
CCCCc1nn(CC(=O)N[C@H]2C[C@@](C)(O)C2)c(=O)c2cc(C3CC3)nn12 [Final Cpd 196] | > 10 | > 10 | 
COc1ccc(NC(=O)Cn2nc(C(C)C)n3nc(C4CC4)cc3c2=O)cn1 [Final Cpd 111] | 0.83 | > 10 | 
CC(C)c1nn(CC(=O)Nc2ccc3ncoc3c2)c(=O)c2cc(C3CC3)nn12 [Final Cpd 100] | 0.31 | > 10 | 
